PubChem BioAssay (NCI)
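The compound was tested at five concentrations on cells cultured in 96-well plates, with a 48-hour exposure period. Here, GI50 denotes the concentration required for 50% inhibition of growth. Definition used: TGI = concentration required for complete inhibition of growth.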

Tests used:
Assay in all cases: growth of human tumour cells (NCI), 48 h
NCI/ADR-RES ovarian = test system: NCI/ADR-RES ovarian
EKVX NSCLC = test system: EKVX NSCLC
COLO 205 colon = test system: COLO 205 colon
OVCAR-4 ovarian = test system: OVCAR-4 ovarian
MDA-MB-435 = test system: MDA-MB-435
OVCAR-3 ovarian = test system: OVCAR-3 ovarian
NCI-H23 lung = test system: NCI-H23 lung
HOP-92 NSCLC = test system: HOP-92 NSCLC
OVCAR-8 ovarian = test system: OVCAR-8 ovarian
SN12C renal = test system: SN12C renal
HCC-2998 colon = test system: HCC-2998 colon
SF-539 CNS = test system: SF-539 CNS
786-0 renal = test system: 786-0 renal
CCRF-CEM leukemia = test system: CCRF-CEM leukemia
SK-MEL-2 melanoma = test system: SK-MEL-2 melanoma
HCT-116 colon = test system: HCT-116 colon
PC-3 prostate = test system: PC-3 prostate
HOP-62 NSCLC = test system: HOP-62 NSCLC
NCI-H460 lung = test system: NCI-H460 lung
IGROV1 ovarian = test system: IGROV1 ovarian
UO-31 renal = test system: UO-31 renal
K-562 leukemia = test system: K-562 leukemia
RPMI-8226 leukemia = test system: RPMI-8226 leukemia
TK-10 renal = test system: TK-10 renal
SK-OV-3 ovarian = test system: SK-OV-3 ovarian
A498 renal = test system: A498 renal
ACHN renal = test system: ACHN renal
OVCAR-5 ovarian = test system: OVCAR-5 ovarian
HCT-15 colon = test system: HCT-15 colon
HL-60(TB) leukemia = test system: HL-60(TB) leukemia
SNB-19 CNS = test system: SNB-19 CNS
LOX IMVI melanoma = test system: LOX IMVI melanoma
UACC-62 melanoma = test system: UACC-62 melanoma
HT29 colon = test system: HT29 colon
MALME-3M melanoma = test system: MALME-3M melanoma
SF-295 CNS = test system: SF-295 CNS
SW-620 colon = test system: SW-620 colon
A549 NSCLC = test system: A549 NSCLC
CAKI-1 renal = test system: CAKI-1 renal
M14 melanoma = test system: M14 melanoma
BT-549 breast = test system: BT-549 breast
HS 578T breast = test system: HS 578T breast
SK-MEL-5 melanoma = test system: SK-MEL-5 melanoma
U251 CNS = test system: U251 CNS
SR leukemia = test system: SR leukemia
DU-145 prostate = test system: DU-145 prostate
RXF 393 renal = test system: RXF 393 renal
KM12 colon = test system: KM12 colon
MDA-MB-231 breast = test system: MDA-MB-231 breast
UACC-257 melanoma = test system: UACC-257 melanoma
NCI-H522 lung = test system: NCI-H522 lung
T-47D breast = test system: T-47D breast
MOLT-4 leukemia = test system: MOLT-4 leukemia
NCI-H226 lung = test system: NCI-H226 lung
SF-268 CNS = test system: SF-268 CNS
MCF7 breast = test system: MCF7 breast
SK-MEL-28 melanoma = test system: SK-MEL-28 melanoma

Cc1cc(Br)c(O)c(-c2cscn2)c1
TGI (NCI/ADR-RES ovarian): 56.9 µM | TGI (EKVX NSCLC): 96.1 µM | TGI (COLO 205 colon): 51.8 µM | TGI (OVCAR-4 ovarian): 28.7 µM | TGI (MDA-MB-435): 41.9 µM | TGI (OVCAR-3 ovarian): > 100 µM | TGI (NCI-H23 lung): 35.6 µM | TGI (HOP-92 NSCLC): 43.1 µM | TGI (OVCAR-8 ovarian): 42.1 µM | TGI (SN12C renal): 23.6 µM | TGI (HCC-2998 colon): 36.2 µM | TGI (SF-539 CNS): 37.3 µM | TGI (786-0 renal): 8.39 µM | TGI (CCRF-CEM leukemia): 28.6 µM | TGI (SK-MEL-2 melanoma): 35.1 µM | TGI (HCT-116 colon): 25.2 µM | TGI (PC-3 prostate): 27.7 µM | TGI (HOP-62 NSCLC): 41.2 µM | TGI (NCI-H460 lung): 49.6 µM | TGI (IGROV1 ovarian): 56.7 µM | TGI (UO-31 renal): 25.4 µM | TGI (K-562 leukemia): 25.2 µM | TGI (RPMI-8226 leukemia): 20.3 µM | TGI (TK-10 renal): 42 µM | TGI (SK-OV-3 ovarian): > 100 µM | TGI (A498 renal): 76.8 µM | TGI (ACHN renal): 36.6 µM | TGI (OVCAR-5 ovarian): 36.4 µM | TGI (HCT-15 colon): 18.4 µM | TGI (HL-60(TB) leukemia): 12.7 µM | TGI (SNB-19 CNS): 31.2 µM | TGI (LOX IMVI melanoma): 23.1 µM | TGI (UACC-62 melanoma): 28.2 µM | TGI (HT29 colon): > 100 µM | TGI (MALME-3M melanoma): 43.7 µM | TGI (SF-295 CNS): > 100 µM | TGI (SW-620 colon): 31.5 µM | TGI (A549 NSCLC): 50.4 µM | TGI (CAKI-1 renal): 62.6 µM | TGI (M14 melanoma): 44 µM | TGI (BT-549 breast): 24 µM | TGI (HS 578T breast): 52.4 µM | TGI (SK-MEL-5 melanoma): 30.5 µM

CN(Cc1cnc2nc(N)nc(N)c2n1)c1c(Cl)cc(C(=O)NC(CCC(=O)O)C(=O)O)cc1Br (stereo not drawn)
GI50 (NCI/ADR-RES ovarian): < 0.01 µM | TGI (NCI/ADR-RES ovarian): > 100 µM | GI50 (EKVX NSCLC): < 0.0282 µM | TGI (EKVX NSCLC): > 100 µM | GI50 (U251 CNS): < 0.0237 µM | TGI (U251 CNS): > 100 µM | GI50 (COLO 205 colon): 0.0535 µM | TGI (COLO 205 colon): > 100 µM | GI50 (OVCAR-4 ovarian): > 100 µM | TGI (OVCAR-4 ovarian): > 100 µM | GI50 (MDA-MB-435): < 0.01 µM | TGI (MDA-MB-435): > 100 µM | GI50 (OVCAR-3 ovarian): < 0.01 µM | TGI (OVCAR-3 ovarian): > 100 µM | GI50 (NCI-H23 lung): 0.016 µM | TGI (NCI-H23 lung): > 100 µM | GI50 (SR leukemia): < 0.01 µM | TGI (SR leukemia): > 100 µM | GI50 (HOP-92 NSCLC): > 100 µM | TGI (HOP-92 NSCLC): > 100 µM | GI50 (OVCAR-8 ovarian): < 0.01 µM | TGI (OVCAR-8 ovarian): > 100 µM | GI50 (SN12C renal): < 0.01 µM | TGI (SN12C renal): > 100 µM | GI50 (HCC-2998 colon): < 0.01 µM | TGI (HCC-2998 colon): 0.153 µM | GI50 (DU-145 prostate): < 0.01 µM | TGI (DU-145 prostate): > 100 µM | GI50 (SF-539 CNS): < 0.01 µM | TGI (SF-539 CNS): > 100 µM | GI50 (786-0 renal): < 0.01 µM | TGI (786-0 renal): > 100 µM | GI50 (CCRF-CEM leukemia): < 0.01 µM | TGI (CCRF-CEM leukemia): > 100 µM | GI50 (RXF 393 renal): 0.345 µM | TGI (RXF 393 renal): > 100 µM | GI50 (KM12 colon): < 0.01 µM | TGI (KM12 colon): > 100 µM | GI50 (SK-MEL-2 melanoma): < 0.01 µM | TGI (SK-MEL-2 melanoma): > 100 µM | GI50 (HCT-116 colon): < 0.01 µM | TGI (HCT-116 colon): > 100 µM | TGI (MDA-MB-231 breast): > 100 µM | GI50 (PC-3 prostate): < 0.01 µM | TGI (PC-3 prostate): > 80.1 µM | GI50 (HOP-62 NSCLC): < 0.0221 µM | TGI (HOP-62 NSCLC): > 100 µM | GI50 (NCI-H460 lung): < 0.01 µM | TGI (NCI-H460 lung): > 100 µM | GI50 (IGROV1 ovarian): < 0.01 µM | TGI (IGROV1 ovarian): 18.2 µM | GI50 (UO-31 renal): < 0.01 µM | TGI (UACC-257 melanoma): > 100 µM | GI50 (K-562 leukemia): < 0.01 µM | TGI (K-562 leukemia): > 100 µM | GI50 (RPMI-8226 leukemia): < 0.01 µM | TGI (RPMI-8226 leukemia): > 100 µM | GI50 (NCI-H522 lung): 0.0391 µM | TGI (NCI-H522 lung): > 100 µM | GI50 (T-47D breast): 0.261 µM | TGI (T-47D breast): > 100 µM | GI50 (TK-10 renal): < 0.01 µM | TGI (TK-10 renal): > 100 µM | GI50 (SK-OV-3 ovarian): 0.0595 µM | TGI (SK-OV-3 ovarian): > 100 µM | GI50 (A498 renal): 0.0302 µM | TGI (A498 renal): > 100 µM | GI50 (ACHN renal): < 0.01 µM | TGI (ACHN renal): > 100 µM | GI50 (OVCAR-5 ovarian): 0.127 µM | TGI (OVCAR-5 ovarian): > 100 µM | GI50 (MOLT-4 leukemia): < 0.01 µM | TGI (MOLT-4 leukemia): > 100 µM | GI50 (HCT-15 colon): < 0.01 µM | TGI (HCT-15 colon): > 100 µM | GI50 (HL-60(TB) leukemia): < 0.01 µM | TGI (HL-60(TB) leukemia): > 100 µM | GI50 (SNB-19 CNS): 0.031 µM | TGI (SNB-19 CNS): > 100 µM | GI50 (LOX IMVI melanoma): < 0.01 µM | TGI (LOX IMVI melanoma): > 100 µM | GI50 (UACC-62 melanoma): < 0.0118 µM | TGI (UACC-62 melanoma): > 100 µM | GI50 (HT29 colon): < 0.01 µM | TGI (HT29 colon): > 100 µM | GI50 (MALME-3M melanoma): 0.0322 µM | TGI (MALME-3M melanoma): > 100 µM | GI50 (SF-295 CNS): < 0.01 µM | GI50 (NCI-H226 lung): 0.0237 µM | TGI (NCI-H226 lung): > 100 µM | GI50 (SW-620 colon): < 0.01 µM | TGI (SW-620 colon): > 100 µM | GI50 (A549 NSCLC): < 0.01 µM | TGI (A549 NSCLC): > 100 µM | GI50 (SF-268 CNS): < 0.01 µM | TGI (SF-268 CNS): > 100 µM | GI50 (CAKI-1 renal): < 0.01 µM | TGI (CAKI-1 renal): 0.0671 µM | GI50 (MCF7 breast): < 0.01 µM | TGI (MCF7 breast): > 100 µM | GI50 (M14 melanoma): < 0.01 µM | TGI (M14 melanoma): > 100 µM | GI50 (BT-549 breast): < 0.0122 µM | TGI (BT-549 breast): > 100 µM | GI50 (HS 578T breast): 17.8 µM | TGI (HS 578T breast): > 100 µM | GI50 (SK-MEL-5 melanoma): 0.0313 µM | TGI (SK-MEL-5 melanoma): > 100 µM | GI50 (SK-MEL-28 melanoma): > 23.8 µM | TGI (SK-MEL-28 melanoma): > 100 µM
